The test system of assay [1] is KARPAS422 human B cell lymphoma cell. Nature of the assay: Cell proliferation, KARPAS422, 7 day treatment (WST-8). Format: cell-based. The note with it: Homo sapiens, KARPAS-422, 168 h, 7 day treatment, read-out: Karpas Cell line. An outline of the steps: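 Read-out was WST-8 absorbance at 450 nm after 1-4 h with reagent, taken after 7-day compound treatment (serial dilutions, 37 °C, 5% CO2) of 2 000-3 000 KARPAS422 cells per well. IC50 fitted by nonlinear regression on DMSO-normalized values.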
In general terms: Tetrazolium assays rely on reduction of a dye to a coloured formazan, in cell work by metabolically active cells.

Assay [2] concerns Pfeiffer cell line. Nature of the assay: Anti-proliferative activity, Pfeiffer cell line, 7 day treatment. Format: cell-based. The note with it: Homo sapiens, 168 h, 7 day treatment, read-out: Pfeiffer Cell line. As for the experimental part: “N/A” stands for “not assessed”.
To assess the effect of PRC2 inhibition on cell growth, cells were seeded in 96-well cell culture plates at a density of 2 000-3 000 cells/well in 200 µL of culture medium, and treated with serially diluted compounds for 7 days at 37° C. in an atmosphere of 5% CO2. Cell growth was evaluated by a […] WST-8 assay (Dojindo Molecular Technologies) using a Tecan Infinite M1000 multimode microplate reader (Tecan, Morrisville, NC). The WST-8 reagent was added to the plate, incubated for 1-4 h, and read at 450 nm. The readings were normalized to the DMSO-treated cells, and the IC50 was calculated by nonlinear regression analysis using GraphPad Prism 6 software

Where [3] appears, read: anti-proliferative IC50 class, Karpas 422 cell line.
Setting [4] is: anti-proliferative IC50 class, Pfeiffer cell line.
Where [5] appears, read: anti-proliferative IC50, Karpas 422 cell line.
The mark [6] stands for this setting: anti-proliferative IC50, Pfeiffer cell line.

Data on 22 compounds can be found in patent US12145944B2, “Imidazopyrimidines as EED inhibitors and the use thereof” (THE REGENTS OF THE UNIVERSITY OF MICHIGAN, priority 2019, dated 2024).

Read-outs that look alike come from different tables or passages of the source. Where only a bound is given, the exact number is not on record here.

On to `O=C1NCCc2ccccc2-c2cnc(NCc3c(F)ccc4c3CCO4)n3cnc1c23` [E 28, 13-(((5-fluoro-2,3-dihydrobenzofuran-4-yl)methyl)amino)-5,6-dihydro-2,4,12,13a-tetraazabenzo[4,5]cyclonona[1,2,3-cd]inden-3(4H)-one], for which the IC50 in assay [1] (setting [3]) is above 100 nM; in assay [2] (setting [4]), 10 to 100 nM.

Consider `Cc1ccc2c(n1)CCNC(=O)c1ncn3c(NCc4c(F)ccc5c4CCO5)ncc-2c13` [E 29, 13-(((5-fluoro-2,3-dihydrobenzofuran-4-yl)methyl)amino)-8-methyl-5,6-dihydro-2,4,7,12,13a-pentaazabenzo[4,5]cyclonona[1,2,3-cd]inden-3(4H)-one], for which the IC50 in assay [1] (setting [3]) and in assay [2] (setting [4]) was 10 to 100 nM each time.

Regarding `Cc1ccc2c(n1)CCN(CC(F)(F)F)C(=O)c1ncn3c(NCc4c(F)ccc5c4CCO5)ncc-2c13` [E 30, 13-(((5-fluoro-2,3-dihydrobenzofuran-4-yl)methyl)amino)-8-methyl-4-(2,2,2-trifluoroethyl)-5,6-dihydro-2,4,7,12,13a-pentaazabenzo[4,5]cyclonona[1,2,3-cd]inden-3(4H)-one], the IC50 in assay [1] (setting [3]) and in assay [2] (setting [4]) was 10 to 100 nM in each case.

Take `CC(C)N1CCc2cc(C(F)(F)F)ncc2-c2cnc(NCc3c(F)ccc4c3CCO4)n3cnc(c23)C1=O` [E 31, 13-(((5-fluoro-2,3-dihydrobenzofuran-4-yl)methyl)amino)-4-isopropyl-8-(trifluoromethyl)-5,6-dihydro-2,4,9,12,13a-pentaazabenzo[4,5]cyclonona[1,2,3-cd]inden-3(4H)-one]: the IC50 in assay [1] (setting [3]) and in assay [2] (setting [4]) was 10 to 100 nM in each case.

On to `Fc1ccc2c(c1CNc1ncc3c4c(ncn14)-c1nccn1Cc1nc(C(F)(F)F)ccc1-3)CCO2` [E 32, N-((5-fluoro-2,3-dihydrobenzofuran-4-yl)methyl)-8-(trifluoromethyl)-6H-2,3,5a,7,12,13a-hexaazabenzo[4,5]cyclopenta[7,8]cycloocta[1,2,3-cd]inden-13-amine], for which the IC50 in assay [1] (setting [3]) was 10 to 100 nM; in assay [2] (setting [4]), below 10 nM.

With `Fc1ccc2c(c1CNc1ncc3c4c(ncn14)-c1nccn1Cc1cc(C(F)(F)F)ncc1-3)CCO2` [E 33, N-((5-fluoro-2,3-dihydrobenzofuran-4-yl)methyl)-8-(trifluoromethyl)-6H-2,3,5a,9,12,13a-hexaazabenzo[4,5]cyclopenta[7,8]cycloocta[1,2,3-cd]inden-13-amine], the IC50 in assay [1] (setting [3]) and in assay [2] (setting [4]) was 10 to 100 nM throughout.

For the compound `Cc1ccc2c(n1)Cn1ccnc1-c1ncn3c(NCc4c(F)ccc5c4CCO5)ncc-2c13` [E 34, N-((5-fluoro-2,3-dihydrobenzofuran-4-yl)methyl)-8-methyl-6H-2,3,5a,7,12,13a-hexaazabenzo[4,5]cyclopenta[7,8]cycloocta[1,2,3-cd]inden-13-amine], the figures for the IC50 in assay [1] (setting [3]) and in assay [2] (setting [4]) were 10 to 100 nM and below 10 nM, respectively.

Consider `Cc1onc2c1Cc1cc(C(F)(F)F)ncc1-c1cnc(NCc3c(F)ccc4c3CCO4)n3cnc-2c13` [E 35, N-((5-fluoro-2,3-dihydrobenzofuran-4-yl)methyl)-5-methyl-8-(trifluoromethyl)-6H-4-oxa-2,3,9,12,13a-pentaazabenzo[4,5]cyclopenta[7,8]cycloocta [1,2,3-cd]inden-13-amine], for which the IC50 in assay [1] (setting [3]) and in assay [2] (setting [4]) was 10 to 100 nM throughout.

For `Cc1ccc2c(n1)Cc1conc1-c1ncn3c(NCc4c(F)ccc5c4CCO5)ncc-2c13` [E 36, N-((5-fluoro-2,3-dihydrobenzofuran-4-yl)methyl)-8-methyl-6H-4-oxa-2,3,7,12,13a-pentaazabenzo[4,5]cyclopenta[7,8]cycloocta [1,2,3-cd]inden-13-amine], the IC50 in assay [1] (setting [3]) and in assay [2] (setting [4]) was 10 to 100 nM throughout.

Consider `CCc1cnc2n1Cc1cc(C(F)(F)F)ncc1-c1cnc(NCc3c(F)ccc4c3CCO4)n3cnc-2c13` [E 37, 5-ethyl-N-((5-fluoro-2,3-dihydrobenzofuran-4-yl)methyl)-8-(trifluoromethyl)-6H-2,3,5a,9,12,13a-hexaazabenzo[4,5]cyclopenta[7,8]cycloocta[1,2,3-cd]inden-13-amine], for which the IC50 in assay [1] (setting [3]) and in assay [2] (setting [4]) was 10 to 100 nM throughout.

With `CCc1cnc2n1Cc1nc(C)ccc1-c1cnc(NCc3c(F)ccc4c3CCO4)n3cnc-2c13` [E 38, 5-ethyl-N-((5-fluoro-2,3-dihydrobenzofuran-4-yl)methyl)-8-methyl-6H-2,3,5a,7,12,13a-hexaazabenzo[4,5]cyclopenta[7,8]cycloocta[1,2,3-cd]inden-13-amine], the IC50 in assay [1] (setting [3]) and in assay [2] (setting [4]) was 10 to 100 nM each time.

Take `Cc1ccc2c(n1)CN(CC(F)(F)F)C(=O)c1ncn3c(NCc4c(F)ccc5c4CCCO5)ncc-2c13` [E 39, 12-(((6-fluorochroman-5-yl)methyl)amino)-7-methyl-4-(2,2,2-trifluoroethyl)-4,5-dihydro-3H-2,4,6,11,12a-pentaazabenzo[4,5]cycloocta[1,2,3-cd]inden-3-one]: the IC50 in assay [1] (setting [3]) is 10 to 100 nM; in assay [2] (setting [4]), below 10 nM.

As for `O=C1c2ncn3c(NCc4c(F)ccc5c4CCO5)ncc(c23)-c2ccc(C3CCOCC3)nc2CN1CC(F)(F)F` [E 45, 12-(((5-fluoro-2,3-dihydrobenzofuran-4-yl)methyl)amino)-7-(tetrahydro-2H-pyran-4-yl)-4-(2,2,2-trifluoroethyl)-4,5-dihydro-3H-2,4,6,11,12a-pentaazabenzo[4,5]cycloocta[1,2,3-cd]inden-3-one], the IC50 in assay [1] (setting [3]) and in assay [2] (setting [4]) was below 10 nM throughout.

As for `CC(C)(C)c1cc2c(cn1)-c1cnc(NCc3c(F)ccc4c3CCO4)n3cnc(c13)C(=O)N(CC(F)(F)F)C2` [E 46, 7-(tert-butyl)-12-(((5-fluoro-2,3-dihydrobenzofuran-4-yl)methyl)amino)-4-(2,2,2-trifluoroethyl)-4,5-dihydro-3H-2,4,8,11,12a-pentaazabenzo[4,5]cycloocta[1,2,3-cd]inden-3-one], the IC50 in assay [1] (setting [3]) and in assay [2] (setting [4]) was below 10 nM throughout.

On to `CC(C)c1ccc2c(n1)CN(CC(F)F)C(=O)c1ncn3c(NCc4c(F)ccc5c4CCO5)ncc-2c13` [E 47, 4-(2,2-difluoroethyl)-12-(((5-fluoro-2,3-dihydrobenzofuran-4-yl)methyl)amino)-7-isopropyl-4,5-dihydro-3H-2,4,6,11,12a-pentaazabenzo[4,5]cycloocta[1,2,3-cd]inden-3-one], for which the IC50 in assay [1] (setting [3]) and in assay [2] (setting [4]) was below 10 nM throughout.

`O=C1c2ncn3c(NCc4c(F)ccc5c4CCO5)ncc(c23)-c2ccc(C3COCCO3)nc2CN1CC(F)(F)F` (centres unmarked) [E 48, 7-(1,4-dioxan-2-yl)-12-(((5-fluoro-2,3-dihydrobenzofuran-4-yl)methyl)amino)-4-(2,2,2-trifluoroethyl)-4,5-dihydro-3H-2,4,6,11,12a-pentaazabenzo[4,5]cycloocta[1,2,3-cd]inden-3-one]: the IC50 in assay [1] (setting [3]) and in assay [2] (setting [4]) was below 10 nM throughout.

As for `O=C1c2ncn3c(NCc4c(F)ccc5c4CCO5)ncc(c23)-c2ccc(CC3COCCO3)nc2CN1CC(F)(F)F` (centres unmarked) [E 49, 7-((1,4-dioxan-2-yl)methyl)-12-(((5-fluoro-2,3-dihydrobenzofuran-4-yl)methyl)amino)-4-(2,2,2-trifluoroethyl)-4,5-dihydro-3H-2,4,6,11,12a-pentaazabenzo[4,5]cycloocta[1,2,3-cd]inden-3-one], the IC50 in assay [1] (setting [3]) and in assay [2] (setting [4]) was below 10 nM each time.

On to `CC(C)(C)c1ccc2c(n1)CN(CC(F)(F)F)C(=O)c1ncn3c(NCc4c(F)ccc5c4CCO5)ncc-2c13` [E 50, 7-(tert-butyl)-12-(((5-fluoro-2,3-dihydrobenzofuran-4-yl)methyl)amino)-4-(2,2,2-trifluoroethyl)-4,5-dihydro-3H-2,4,6,11,12a-pentaazabenzo[4,5]cycloocta[1,2,3-cd]inden-3-one], for which the IC50 in assay [1] (setting [3]) and in assay [2] (setting [4]) was below 10 nM each time.

`O=C1c2ncn3c(NCc4c(F)ccc5c4CCO5)ncc(c23)-c2ccc(C3CCC3)nc2CN1CC(F)(F)F` [E 52, 7-cyclobutyl-12-(((5-fluoro-2,3-dihydrobenzofuran-4-yl)methyl)amino)-4-(2,2,2-trifluoroethyl)-4,5-dihydro-3H-2,4,6,11,12a-pentaazabenzo[4,5]cycloocta[1,2,3-cd]inden-3-one]: the IC50 in assay [1] (setting [3]) and in assay [2] (setting [4]) was below 10 nM in each case.

Regarding `Cc1cccc(F)c1CNc1ncc2c3c(ncn13)COCc1ncccc1-2` [compound 1, N-(2-fluoro-6-methylbenzyl)-3H,5H-4-oxa-2,6,11,12a-tetraazabenzo[4,5]cycloocta[1,2,3-cd]inden-12-amine], the IC50 in assay [1] (setting [5]) and in assay [2] (setting [6]) was above 100 nM throughout.

As for `CS(=O)(=O)c1ccc2c(c1)NC(=O)c1ncn3c(NCc4c(F)ccc5c4CCO5)ncc-2c13` [compound 5, 11-(((5-fluoro-2,3-dihydrobenzofuran-4-yl)methyl)amino)-6-(methylsulfonyl)-2,4,10,11a-tetraazadibenzo[cd,f]azulen-3(4H)-one], the figures for the IC50 in assay [1] (setting [5]) and in assay [2] (setting [6]) were 32.2 nM and 18.1 nM, respectively.

With `O=C1OCc2ccccc2-c2cnc(NCc3c(F)ccc4c3CCO4)n3cnc1c23` [compound 6, 12-(((5-fluoro-2,3-dihydrobenzofuran-4-yl)methyl)amino)-3H,5H-4-oxa-2,11,12a-triazabenzo[4,5]cycloocta[1,2,3-cd]inden-3-one], the IC50 in assay [1] (setting [5]) came out at 1.98 nM; in assay [2] (setting [6]), 0.22 nM.
